Here are results for two molecules from patent US20260070921A1, “COMPOUND, ENDOPLASMIC RETICULUM STRESS INHIBITOR, PHARMACEUTICAL PRODUCT, OPHTHALMIC AGENT, EYE DROPS, COMPOSITION, AND METHOD FOR PRODUCING COMPOUND” (KYOTO UNIVERSITY, priority 2022, published 2026).

One data set has as its system HEK293 cells. Put plainly: Cell viability assay without ER stress inducer (cytotoxicity, WST-8). Type of data set: cell-based. As to conditions: 64 h. On the procedure: HEK293 cells were treated with compound 1, compound 4, compound 5, or compound 6 (25 μM or 100 μM, respectively) for 64 hours. The vertical axis represents relative cell viability (unit: %), and the horizontal axis represents concentration (unit: μM). Cell viability was measured using a WST-8 cell counting kit. Error bars represent s.d. (n=3).
FIG. 31 is a graph showing the results of a cell viability assay using bafilomycin A1. HEK293 cells were treated with bafilomycin A1 in DMEM (10% FBS) for 48 hours. The vertical axis represents relative cell viability (unit: %), and the horizontal axis represents the concentration of bafilomycin A1 (unit: μM). Cell viability was measured using a WST-8 cell counting kit. Error bars represent s.d. (n=3).
FIG. 32 is a graph showing the results of a cell viability assay using MG132. HEK293 cells were treated with MG132 in DMEM (10% FBS) for 48 hours. The vertical axis represents relative cell viability (unit: t), and the horizontal axis represents the concentration of MG132 (unit: μM). Cell viability was measured using a WST-8 cell counting kit. Error bars represent s.d. (n=3).
The term “Efficacy” denotes ER (endoplasmic reticulum) stress inhibition activity. The term “Toxicity” denotes cytotoxicity. In the ER stress inhibition activity (Efficacy), “−” indicates no activity, “+” indicates weak activity, and “++” indicates strong activity. In addition, “XD7” in Table 1 below represents compound 6. That is, XD7 and compound 6 are the same compound.

The test system of the next data set is caspase 3. Put plainly: Western blotting of TGF-β2-induced caspase activation in iFECD. Type of data set: cell-based, human. As to conditions: TGF-β2 stimulated iFECD. The procedure:
In order to collect floating cells and dead cells, the medium was collected on ice, and the solution resulting from washing cells with 1×PBS(−) twice was also collected and centrifuged at 4° C. at 800 g for 12 minutes, followed by discarding the supernatant, thereby obtaining a precipitate. Proteins were extracted from the washed cells by adding a protein extraction buffer (RIPA; 50 mM Tris-HCl (pH of 7.4), 150 mM NaCl, 1 mM EDTA, 0.1% SDS, 0.5% DOC, 1% NP-40) on ice. Thereafter, the precipitate obtained after centrifugation of the floating cells and dead cells was suspended together and extracted. The collected liquid was pulverized in cold water for 30 seconds three times with an ultrasonic device (BIORUPTOR, Tosho Denki) and then centrifuged at 4° C. at 15000 rpm for 10 minutes to collect the protein supernatant.
5 to 8 μg of the extracted proteins were separated by SDS-PAGE and transferred to a nitrocellulose membrane. The primary antibodies used were rabbit anti-Caspase 3 antibody (Cell Signaling, 9662), rabbit anti-PARP antibody (Cell Signaling, 9542), and mouse anti-GAPDH antibody (MBL, M171-3). […] The intensity of the detected bands was analyzed using a LAS-4000mini lumino image analyzer (Fujifilm) and ImageQuant™ software (GE Healthcare).

The test system of another data set is iFECD. Put plainly: TGF-β2-induced cell damage in iFECD (phase-contrast microscopy). It is filed as cell-based, human. As to conditions: pretreatment 24 h, TGF-β2 10 ng/ml; compound 1 1-100 μM, compound 6 10 nM-1 μM. The procedure:
The medium was removed from the culture dish, in which iFECD was being cultured, and 1×PBS(−) that had been pre-warmed to 37° C. was added to wash the cells. This procedure was performed twice. Again, 1×PBS(−) was added, and the cells were incubated at 37° C. (5% CO2) for 3 minutes. After the PBS(−) was removed, 0.05% Trypsin-EDTA (Nacalai Tesque, 32778-34) was added, and the cells were incubated at 37° C. ([…]) for 5 minutes. Thereafter, the cells were suspended in a medium and centrifuged at 1500 rpm for 3 minutes to recover the cells. The medium used was DMEM (Nacalai Tesque, 08456-36)+10% FBS (Biowest, S1820-500)+1% P/S (Nacalai Tesque, 26252-94).
iFECD cells were seeded in a 12-well plate at a density of 0.5×10^5 cells per well and cultured at 37° C.
The same method as described in the Materials and Methods section in Example 11-1 was used, except that compound 6 was used instead of compound 1, and the amount of iFECD seeded in a 12-well plate was changed from 0.5×10^5 cells per well to 0.9×10^5 cells per well.

The test system of data set [1] is mouse embryonic fibroblasts (MEFs). Put plainly: Tunicamycin assay using autophagy-deficient cells. It is filed as cell-based. The following applies: for Rescue from ER stress-induced cell death: wild-type MEFs, compound 1 100 μM, compound 6 25 μM, 18 h, tunicamycin 5.0 μg/mL 48 h. On the procedure:
Cellular protein aggregates are often cleared by cellular mechanisms, such as autophagy and ubiquitin-proteasome system. To examine the importance of these proteolytic pathways in the activity of compounds 1 and 6, their ability to inhibit tunicamycin-induced cytotoxicity in the presence of an autophagy or proteasome inhibitor (bafilomycin A1 or MG132, respectively) was measured. FIG. 9 is a graph showing the results of a tunicamycin assay using an autophagy or proteasome inhibitor. Cells were pre-incubated with compound 1 or compound 6 for 16 hours and then treated with tunicamycin (5.0 μg/mL) in the presence or absence of a specified substance for 48 hours. FIG. 9(A) is a graph showing measurements in the presence or absence of bafilomycin A1 (Baf A1, autophagy inhibitor). FIG. 9(B) is a graph showing measurements in the presence or absence of MG132 (proteasome inhibitor). Error bars represent s.d. (n=3). Statistical analysis was performed according to the one-way ANOVA and Dunnett's test. *P<0.05; n.s.: not significant. […] The concentrations used of the inhibitors were confirmed to be non-toxic to cells (FIGS. 31 and 32). To further study the role of autophagy, autophagy-deficient atg7^−/− and p62^−/− mouse embryonic fibroblasts (MEFs) were subjected to a tunicamycin assay. FIG. 10 is a graph showing the results of the tunicamycin assay using the autophagy-deficient cells. Wild-type (wt), atg7^−/−, or p62^−/− mouse embryonic fibroblasts (MEFs) were treated with molecule 1 (100 μM) or molecule 6 (25 μM) for 18 hours and then incubated with tunicamycin (5.0 μg/mL) for 48 hours. Error bars represent s.d. (n=3). Statistical analysis was performed according to the one-way ANOVA and Dunnett's test. *P<0.05, **P<0.01. ATG7 is an E1-like enzyme important for phagophore expansion, and p62 is an autophagy receptor for ubiquitinated substrates (Reference Material 20 below). Wild-type (wt), atg7^−/−, or p62^−/− MEF cells were treated with compound 1 or compound 6 for 18 hours, followed by treatment with tunicamycin (5.0 μg/mL) for 48 hours. […] Nat Rev Mol Cell Bio 2018, 19 (6), 349-364. https://doi.org/10.1038/s41580-018-0003-4.

For `NS(=O)(=O)c1ccc(Nc2ccn3c(n2)nc(=O)c2sc4cc(F)ccc4c23)cc1` [compound 1], the Cytotoxicity entry with HEK293 cells (up to 100 μM) is recorded as “no obvious cytotoxicity”. Besides, in the data set on caspase 3, the “Cleaved active caspase 3 (about 17 kDa)” value is recorded as “hardly detected”. Moreover, the “Cell damage induced by recombinant human TGF-β2” value with iFECD is recorded as “limited damage to corneal endothelial cells”. For the same molecule, the “Ability to rescue from ER stress-induced cell death” value in data set [1] (atg7−/− MEFs) and in data set [1] (p62−/− MEFs) was “severely impaired” throughout. Further, the “Rescue from ER stress-induced cell death” value in data set [1] is “rescued”.
`COc1ccc2c(c1)sc1c(=O)nc3nc(Nc4ccc(S(N)(=O)=O)cc4)ccn3c12` [compound 6]: the Cytotoxicity result is given as “no obvious cytotoxicity” in the data set with HEK293 cells (at 25 μM) and “slightly reduced cell viability” with HEK293 cells (at 100 μM). For the same molecule, the “Cleaved active caspase 3 (about 17 kDa)” value with caspase 3 is given as “hardly detected”. Besides, the “Cell damage induced by recombinant human TGF-β2” value in the data set with iFECD is recorded as “limited damage to corneal endothelial cells”. For the same molecule, the “Ability to rescue from ER stress-induced cell death” value in data set [1] (atg7−/− MEFs) and in data set [1] (p62−/− MEFs) was “severely impaired” in each case. The “Rescue from ER stress-induced cell death” value in data set [1] is listed as “rescued”.
